For 4 compounds, IC50, melting point and remaining activity results are on record in article PMC8634879, “Design, Synthesis, and Biological Evaluation of Pyrano[2,3-c]-pyrazole–Based RalA Inhibitors Against Hepatocellular Carcinoma” (Frontiers in Chemistry, 2021).

Read-outs that look alike come from different tables or passages of the source.

One data set concerns HepG2 cells. Kind of data set: Cell proliferation assay (MTT), HepG2. In kind it is cell-based. The following applies: Homo sapiens. As for the experimental part: (§1) The antibodies recognizing LC3, p62/SQSTM1, RalA, RalB, and GAPDH were purchased from Proteintech (Wuhan, China). HCC cell lines, including HepG2, Hep3B, Huh-7, and SMMC-7721, were obtained from the Chinese Center for Type Culture Collection (Wuhan, China) and cultured in DMEM (Dulbecco’s modified Eagle’s medium) with 10% FBS (fetal bovine serum) and streptomycin. Cytotoxicity assays were performed by using the MTT method as previously described.
(§2) The in vitro RalA/B bioactivity assays were performed following methods outlined in previous reports. ([Yan et al., 2016]; [Zhang et al., 2018]; [Walsh et al., 2019]; [Bum-Erdene et al., 2020]). In brief, the lysates of the test compound or vehicle-treated cells were cleared using cold centrifugation, and supernatants were collected. An RalBP1 solution was added to 96-well plates and incubated for 1–2 h, and then the plates were washed thrice using ELISA buffer. Next, cellular lysates were added, and samples were incubated overnight at 4°C. Then, ice-cold mouse anti-FLAG antibody was added, and samples were incubated for one more hour. After subsequent washing with ELISA buffer thrice, the HRP-conjugated anti-mouse antibody was added, and samples were incubated for another hour. Then, the HRP substrate was added. Antigen–antibody reactions were quenched by the addition of sulfuric acid (2 mol/L). Remaining RalA/B was detected by the OD450 values which were collected by using a plate reader. Cell proliferation assays, colony formation assays, apoptosis assays, GST pulldown, and Western blotting were used following methods outlined in our previous reports. ([Zhou et al., 2015]; [Zhang et al., 2016]; [Yang et al., 2017]; [He et al., 2019]). Autophagy levels and protein immunoblotting were used following the methods mentioned in our previous reports ([Pan et al., 2018]; [Wang et al., 2018]; [Hao et al., 2019]; [Wang et al., 2019]; [Peng et al., 2020]). Detailed experimental procedures are described in supporting materials.

Another data set has as its system Huh-7 cells. Kind of data set: Cell proliferation assay (MTT), Huh-7. In kind it is cell-based. The conditions noted are these: Homo sapiens. As for the experimental part: as §1, §2
The test system of a further data set is Hep3B cells. Kind of data set: Cell proliferation assay (MTT), Hep3B. In kind it is cell-based. The following applies: Homo sapiens, average of at least three independent replicates ± SD, read-out: Anti-proliferative activities (IC50, μM) Hep3B. As for the experimental part: as §1, §2
The target in a further data set is T1, RalA (Homo sapiens, UniProt P11233).
T1 construct: expressed in transfected cells; host or cells: HepG2 (from b6; the methods paragraph names no cell line)
T1 sequence (P11233 1-203 limits assumed): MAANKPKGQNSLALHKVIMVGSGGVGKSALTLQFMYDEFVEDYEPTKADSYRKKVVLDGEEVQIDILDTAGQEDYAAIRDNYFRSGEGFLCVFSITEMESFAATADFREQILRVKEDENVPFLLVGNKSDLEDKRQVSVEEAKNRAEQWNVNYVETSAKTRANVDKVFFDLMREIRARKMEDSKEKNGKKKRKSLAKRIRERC
Briefly: ELISA-based RalA activity assay (RalBP1-coated plates, lysates of compound-treated cells). The conditions noted are these: for remaining activity at 1 µM: 1 μM compound, % control = activity remained; for IC50: enzymatic inhibition, average of at least three independent replicates ± SD, read-out: Kinase activities (IC50, μM) RalA. In kind it is biochemical. As for the experimental part: as §2
(ELISA stands for enzyme-linked immunosorbent assay.)

For a further data set, the target named is T2, RalB (Homo sapiens, UniProt P11234).
T2 construct: expressed in transfected cells; host or cells: HepG2 (from b6; the methods paragraph names no cell line)
T2 sequence (P11234 1-203 limits assumed): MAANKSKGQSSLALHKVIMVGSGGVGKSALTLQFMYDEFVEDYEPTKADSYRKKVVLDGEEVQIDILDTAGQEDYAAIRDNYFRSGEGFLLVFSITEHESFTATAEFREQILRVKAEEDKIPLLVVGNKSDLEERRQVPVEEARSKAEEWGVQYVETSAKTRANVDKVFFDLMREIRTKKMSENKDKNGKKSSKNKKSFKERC
Kind of data set: ELISA-based RalB activity assay (RalBP1-coated plates, lysates of compound-treated cells). Format: biochemical. The conditions noted are these: for remaining activity at 1 µM: 1 μM compound, % control = active (RalBP1-bound) RalB remaining; for IC50: enzymatic inhibition, average of at least three independent replicates ± SD, read-out: Kinase activities (IC50, μM) RalB. As to the method:
as §2

The test system of a further data set is SMMC-7721 cells. Kind of data set: Cell proliferation assay (MTT), SMMC-7721. In kind it is cell-based. The following applies: Homo sapiens, average of at least three independent replicates ± SD, read-out: Anti-proliferative activities (IC50, μM) SMMC-7721. As to the method: as §1, §2
Where [1] appears, read: HepG2, Table 1, cell proliferation inhibition, read-out: IC50 (μM) HepG2.
Where [2] appears, read: HepG2, Table 2, average of at least three independent replicates ± SD, read-out: Anti-proliferative activities (IC50, μM) HepG2.
[3] abbreviates: Table 1, cell proliferation inhibition, read-out: IC50 (μM) Huh7.
[4] abbreviates: Table 2, average of at least three independent replicates ± SD, read-out: Anti-proliferative activities (IC50, μM) Huh-7.

As usually defined, the IC50 is the concentration at which inhibition is half-maximal. What is called melting point is the temperature, or range, at which the solid turns liquid. Broadly, the remaining activity is the activity still measured, relative to the control. A lower remaining activity goes with little activity left. Consider `Cc1ccc(S(=O)(=O)NC2=C(C#N)C(c3ccc(C(F)(F)F)cc3)c3c(C)nn(-c4ccccc4)c3O2)cc1` (centres unmarked) [4n, N-(5-cyano-3-methyl-1-phenyl-4-(4-(trifluoromethyl)phenyl)-1,4-dihydropyrano[2,3-c]-pyrazol-6-yl)-4-methylbenzenesulfonamide], for which the melting point lay within 109.3 to 110.2 °C. Also, the half-inhibitory concentration (IC50) in the data set on HepG2 cells (setting [1]) was determined as 8.46 ± 0.92 µM. Moreover, in the data set on HepG2 cells (setting [2]), the IC50 was 8.46 ± 0.92 µM. Moreover, the IC50 in the data set with Huh-7 cells (setting [3]) is 9.58 ± 0.92 µM. Besides, in the data set with Huh-7 cells (setting [4]), the IC50 came to 9.58 ± 0.92 µM. Moreover, the half-inhibitory concentration (IC50) in the data set on Hep3B cells was more than 10 µM. Also, on RalA, the remaining activity at 1 µM came to 46% and the IC50 is 1.81 ± 0.19 µM. At RalB, the remaining activity at 1 µM was found to be 59% and the IC50 came out at 4.11 ± 0.45 µM. In the data set with SMMC-7721 cells, the IC50 is more than 10 µM.
With `Cc1nn(-c2ccccc2)c2c1C(c1ccc(C(F)(F)F)cc1)C(C#N)=C(NS(=O)(=O)c1ccc(C(F)(F)F)cc1)O2` (centres unmarked) [4q, N-(5-cyano-3-methyl-1-phenyl-4-(4-(trifluoromethyl)phenyl)-1,4-dihydropyrano[2,3-c]-pyrazol-6-yl)-4-(trifluoromethyl)-benzenesulfonamide], the melting point lay in the range of 153.7 to 154.1 °C. For the same compound, in the data set on HepG2 cells (setting [1]), the IC50 was found to be 8.65 ± 0.97 µM. The IC50 in the data set on HepG2 cells (setting [2]) worked out at 8.65 ± 0.97 µM. In addition, the IC50 in the data set on Huh-7 cells (setting [3]) was 8.42 ± 0.94 µM. In addition, the IC50 in the data set with Huh-7 cells (setting [4]) was 8.42 ± 0.94 µM. The IC50 in the data set on Hep3B cells was 7.76 ± 1 µM. Besides, on RalA, the remaining activity at 1 µM was 37% and the IC50 came to 1.02 ± 0.09 µM. Also, on RalB, the remaining activity at 1 µM is 39% and the IC50 turned out to be 1.16 ± 0.19 µM. Also, the IC50 in the data set on SMMC-7721 cells is more than 10 µM.
Compound `Cc1ccc(S(=O)(=O)NC2=C(C#N)C(c3ccncc3)c3c(C)nn(-c4ccccc4)c3O2)cc1` (centres unmarked) [4l, N-(5-cyano-3-methyl-1-phenyl-4-(pyridin-4-yl)-1,4-dihydropyrano[2,3-c]-pyrazol-6-yl)-4-methylbenzenesulfonamide] yielded a melting point of 100.5 to 101.1 °C. Besides, in the data set on HepG2 cells (setting [1]), the IC50 was 9.2 ± 0.89 µM. Moreover, in the data set on HepG2 cells (setting [2]), the IC50 is 6.01 µM. Moreover, the IC50 in the data set with Huh-7 cells (setting [3]) came to 9.15 ± 1.04 µM. Further, the IC50 in the data set with Huh-7 cells (setting [4]) worked out at 9.15 ± 1.04 µM. In addition, the IC50 in the data set on Hep3B cells came to 4.39 ± 0.57 µM. Moreover, at RalA, the remaining activity at 1 µM came out at 40% and the IC50 amounted to 1.24 ± 0.15 µM. Besides, at RalB, the remaining activity at 1 µM is 52% and the IC50 stood at 2.64 ± 0.3 µM. For the same compound, the half-inhibitory concentration (IC50) in the data set with SMMC-7721 cells amounted to 5.94 ± 0.77 µM.
In the case of `Cc1nn(-c2ccccc2)c2c1C(c1ccc(C(F)(F)F)cc1)C(C#N)=C(NS(=O)(=O)c1cccs1)O2` (centres unmarked) [4o, N-(5-cyano-3-methyl-1-phenyl-4-(4-(trifluoromethyl)phenyl)-1,4-dihydropyrano[2,3-c]-pyrazol-6-yl)thiophene-2-sulfonamide], the melting point was in the range of 55.9 to 56.7 °C. Moreover, the IC50 in the data set on HepG2 cells (setting [1]) was 5.32 ± 0.61 µM. Further, the IC50 in the data set on HepG2 cells (setting [2]) came out at 5.32 ± 0.61 µM. The IC50 with Huh-7 cells (setting [3]) was more than 10 µM. In addition, the IC50 with Huh-7 cells (setting [4]) is more than 10 µM. Moreover, in the data set with Hep3B cells, the IC50 is 7.69 ± 0.84 µM. In addition, at RalA, the remaining activity at 1 µM came out at 36% and the IC50 was 0.96 ± 0.12 µM. Further, on RalB, the remaining activity at 1 µM amounted to 47% and the IC50 turned out to be 1.93 ± 0.26 µM. Further, the IC50 in the data set with SMMC-7721 cells is more than 10 µM.
